The values below come from patent publication US9403846B2, “Carbocyclic- and heterocyclic-substituted hexahydropyrano[3,4-d][1,3]thiazin-2-amine compounds” (Pfizer Inc., priority 2012, dated 2016).

One test addresses BACE1 enzyme (Homo sapiens (Human), UniProt P56817). As to the kind of experiment: BACE1 Cell-Free Assay (fluorescence polarization).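 On all read-outs here: Affinity-purified soluble BACE1 from transfected CHO-K1 cells cleaving a biotinylated, Oregon Green-labelled synthetic APP peptide, 3 h at 37 °C, cleavage followed by fluorescence polarization change.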 It counts as biochemical. The following applies: for IC50: geometric mean of 2-3 determinations (Ex. 2: ≧6 determinations); for biological activity (in words, see Table 3): statement used to assign absolute stereochemistry, refers to Table 3. For orientation: Polarisation of emitted light reports the rotation of a fluorescent probe.

Test [1] concerns sAPPβ levels in H4 human neuroglioma cells over-expressing the wild-type human APP695. As to the kind of experiment: Whole Cell Assay (In Vitro sAPPb Assay). The class given is cell-based. The following applies: 18 hours, geometric mean of 2-3 determinations (Ex. 2: ≧6 determinations).
In another test the target is BACE2 enzyme (Homo sapiens (Human), UniProt Q9Y5Z0). In words: BACE2 Assay (cell-free, fluorescence polarization). It counts as biochemical. The following applies: single determination. The procedure:
This assay measures the inhibition of the BACE2 enzyme as it cleaves a non-native peptide. A synthetic substrate that can be cleaved by BACE2 having N-terminal biotin and made fluorescent by the covalent attachment of Oregon Green at the Cys residue is used to assay BACE2 activity in the presence or absence of the inhibitory compounds. The substrate is Biotin-[…]-C(Oregon green)-KK-OH. The BACE2 enzyme is available from Enzo Life Sciences (Cat # BML-SE550). Compounds are incubated in a ½ log dose response curve from a top concentration of 100 μM with BACE2 enzyme and the biotinylated fluorescent peptide in 384-well black plates (Thermo Scientific #4318). BACE2 is at a final concentration of 2.5 nM with a final concentration of peptide substrate of 150 nM in a reaction volume of 30 μL assay buffer (100 mM sodium acetate, pH 4.5 (brought to pH with acetic acid), and 0.001% Tween-20). Plates are covered and incubated for 3 hours at 37° C. The reaction is stopped with the addition of 30 μL of 1.5 μM Streptavidin (Pierce, #21125). After a 10 minute incubation at room temperature, plates are read on a PerkinElmer EnVision for fluorescence polarization (Ex485 nm/Em530 nm). The activity of the beta-secretase enzyme is detected by changes in the fluorescence polarization that occur when the substrate is cleaved by the enzyme.

Where a name gives a salt, the structure may show the parent alone.

Chain of BACE1 enzyme (P56817 46-457): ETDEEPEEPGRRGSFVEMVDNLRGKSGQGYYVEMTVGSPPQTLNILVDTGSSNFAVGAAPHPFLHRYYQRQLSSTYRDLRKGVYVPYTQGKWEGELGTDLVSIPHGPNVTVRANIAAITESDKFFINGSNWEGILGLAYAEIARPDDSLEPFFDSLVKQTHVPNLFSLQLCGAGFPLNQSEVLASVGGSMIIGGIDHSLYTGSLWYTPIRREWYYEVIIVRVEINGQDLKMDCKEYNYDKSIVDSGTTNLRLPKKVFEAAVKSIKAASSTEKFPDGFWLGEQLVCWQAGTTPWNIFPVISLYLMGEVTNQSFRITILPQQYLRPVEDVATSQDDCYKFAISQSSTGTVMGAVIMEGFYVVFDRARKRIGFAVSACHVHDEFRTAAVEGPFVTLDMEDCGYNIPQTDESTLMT
Chain of BACE2 enzyme (Q9Y5Z0 63-518): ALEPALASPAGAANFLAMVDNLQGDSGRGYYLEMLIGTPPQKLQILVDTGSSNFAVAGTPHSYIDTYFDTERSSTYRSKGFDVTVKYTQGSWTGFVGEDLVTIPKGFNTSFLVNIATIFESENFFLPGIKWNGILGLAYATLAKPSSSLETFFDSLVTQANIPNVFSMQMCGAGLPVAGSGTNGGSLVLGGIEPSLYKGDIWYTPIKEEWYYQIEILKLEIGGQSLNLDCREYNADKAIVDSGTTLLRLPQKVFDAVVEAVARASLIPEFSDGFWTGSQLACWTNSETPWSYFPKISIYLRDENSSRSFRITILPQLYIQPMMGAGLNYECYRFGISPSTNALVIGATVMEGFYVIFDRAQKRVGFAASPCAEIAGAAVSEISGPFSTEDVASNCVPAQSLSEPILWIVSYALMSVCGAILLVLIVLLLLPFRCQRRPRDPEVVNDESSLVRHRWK

As a reminder, the IC50 is the concentration that gives 50% inhibition. As to `CC1([C@@H]2C[C@@H]3CSC(N)=N[C@]3(c3ccc(F)cc3F)CO2)CC1` [Example C61, (4aS,6S,8aR)-8a-(2,4-difluorophenyl)-6-(1-methylcyclopropyl)-4,4a,5,6,8,8a-hexahydropyrano[3,4-d][1,3]thiazin-2-amine], the half-maximal inhibitory concentration (IC50) at BACE1 enzyme turned out to be 37000 nM; in test [1] (Homo sapiens), 2890 nM. The “biological activity (in words, see Table 3)” value (shortened to “biological activity”) at BACE1 enzyme is “essentially inactive”.

As to `NC1=N[C@@]2(c3ccc(F)cc3F)CO[C@@H](CC3CC3)C[C@H]2CS1` [Example 8, (4aR,6S,8aS)-6-(Cyclopropylmethyl)-8a-(2,4-difluorophenyl)-4,4a,5,6,8,8a-hexahydropyrano[3,4-d][1,3]thiazin-2-amine], the IC50 is 235 nM against BACE1 enzyme and 61.2 nM in test [1] (Homo sapiens).

`C[C@@H]1C[C@H]1[C@H]1C[C@H]2CSC(N)=N[C@@]2(c2ccc(F)cc2F)CO1` [Example 20, (4aR,6R,8aS)-8a-(2,4-Difluorophenyl)-6-[(1R,2R)-2-methylcyclopropyl]-4,4a,5,6,8,8a-hexahydropyrano[3,4-d][1,3]thiazin-2-amine]: the figures for the IC50 (against BACE1 enzyme; in test [1] (Homo sapiens)) were 116 nM and 16.2 nM, respectively.

Turning to `CC1(C)CCC([C@H]2C[C@H]3CSC(N)=N[C@@]3(c3ccc(F)cc3F)CO2)O1` (stereo partly drawn) [Example 19, (4aR,6R,8aS)-8a-(2,4-Difluorophenyl)-6-(5,5-dimethyltetrahydrofuran-2-yl)-4,4a,5,6,8,8a-hexahydropyrano[3,4-d][1,3]thiazin-2-amine], the half-inhibitory concentration (IC50) was determined as 184 nM on BACE1 enzyme and 17.9 nM in test [1] (Homo sapiens).

Take `NC1=N[C@]2(c3ccc(F)cc3F)CO[C@H](CC3CC3)C[C@@H]2CS1` [Example C74, (4aS,6R,8aR)-6-(cyclopropylmethyl)-8a-(2,4-difluorophenyl)-4,4a,5,6,8,8a-hexahydropyrano[3,4-d][1,3]thiazin-2-amine]: the IC50 was over 86000 nM against BACE1 enzyme and 7400 nM in test [1] (Homo sapiens). Further, the “biological activity” value at BACE1 enzyme was “essentially inactive”.

As to `Cl.NC1=N[C@]2(c3ccc(F)cc3F)CO[C@H](C3CC3)C[C@@H]2[C@H](CF)S1` [Example C48, (4R,4aS,6S,8aR)-6-cyclopropyl-8a-(2,4-difluorophenyl)-4-(fluoromethyl)-4,4a,5,6,8,8a-hexahydropyrano[3,4-d][1,3]thiazin-2-amine, hydrochloride salt], the IC50 at BACE1 enzyme was over 100000 nM; in test [1] (Homo sapiens), over 30000 nM. The “biological activity” value at BACE1 enzyme is “inactive”.

Regarding `C[C@H]1SC(N)=N[C@@]2(c3ccc(F)cc3F)CO[C@@H](C3CC3)C[C@@H]12` [Example 3, (4R,4aR,6R,8aS)-6-Cyclopropyl-8a-(2,4-difluorophenyl)-4-methyl-4,4a,5,6,8,8a-hexahydropyrano[3,4-d][1,3]thiazin-2-amine, trifluoroacetate salt], the IC50 on BACE1 enzyme came out at 337 nM; in test [1] (Homo sapiens), 38.9 nM; at BACE2 enzyme it was 2490 nM.

As for `NC1=N[C@@]2(c3ccccc3)CO[C@@H](C3CC3)C[C@H]2CS1` [Example 14, (4aR,6R,8aS)-6-Cyclopropyl-8a-phenyl-4,4a,5,6,8,8a-hexahydropyrano[3,4-d][1,3]thiazin-2-amine], the IC50 is 1280 nM on BACE1 enzyme and 142 nM in test [1] (Homo sapiens).

In the case of `NC1=N[C@]2(c3ccccc3F)CO[C@H](C3CC3)C[C@@H]2CS1` [Example 17, (4aS,6S,8aR)-6-Cyclopropyl-8a-(2-fluorophenyl)-4,4a,5,6,8,8a-hexahydropyrano[3,4-d][1,3]thiazin-2-amine], the values for the IC50 (against BACE1 enzyme; in test [1] (Homo sapiens)) were 25700 nM and 1560 nM, respectively.

Turning to `NC1=N[C@]2(c3ccc(F)cc3)CO[C@H](C3CC3)C[C@@H]2CS1` [Example 18, (4aS,6S,8aR)-6-Cyclopropyl-8a-(4-fluorophenyl)-4,4a,5,6,8,8a-hexahydropyrano[3,4-d][1,3]thiazin-2-amine], the values for the 50% inhibitory concentration (IC50) (against BACE1 enzyme; in test [1] (Homo sapiens)) were 15600 nM and 2220 nM, respectively.

For the molecule `NC1=N[C@@]2(c3ccc(F)cc3F)CO[C@@H](C3CCO3)C[C@H]2CS1` (stereo partly drawn) [Example 4, (4aR,6R,8aS)-8a-(2,4-Difluorophenyl)-6-(oxetan-2-yl)-4,4a,5,6,8,8a-hexahydropyrano[3,4-d][1,3]thiazin-2-amine], the IC50 on BACE1 enzyme came to 1310 nM; in test [1] (Homo sapiens), 137 nM.

Take `NC1=N[C@@]2(c3ccc(F)cc3F)CO[C@@H]([C@@H]3CCCO3)C[C@H]2CS1` [Example 21, (4aR,6R,8aS)-8a-(2,4-Difluorophenyl)-6-[(2S)-tetrahydrofuran-2-yl]-4,4a,5,6,8,8a-hexahydropyrano[3,4-d][1,3]thiazin-2-amine]: the IC50 came to 302 nM against BACE1 enzyme and 39.7 nM in test [1] (Homo sapiens).

Turning to `NC1=N[C@@]2(c3c(F)cccc3F)CO[C@@H](C3CC3)C[C@H]2CS1` [Example 12, (4aR,6R,8aS)-6-Cyclopropyl-8a-(2,6-difluorophenyl)-4,4a,5,6,8,8a-hexahydropyrano[3,4-d][1,3]thiazin-2-amine], the 50% inhibitory concentration (IC50) on BACE1 enzyme was 395 nM; in test [1] (Homo sapiens) it was 34.6 nM.

Regarding `Cc1ccc([C@]23CO[C@@H](C4CC4)C[C@H]2CSC(N)=N3)c(F)c1` [Example 15, (4aR,6R,8aS)-6-Cyclopropyl-8a-(2-fluoro-4-methylphenyl)-4,4a,5,6,8,8a-hexahydropyrano[3,4-d][1,3]thiazin-2-amine], the figures for the IC50 (against BACE1 enzyme; in test [1] (Homo sapiens)) were 715 nM and 72.1 nM, respectively.

In the case of `NC1=N[C@@]2(c3cc(F)ccc3F)CO[C@@H](C3CC3)C[C@H]2CS1` [Example 11, (4aR,6R,8aS)-6-Cyclopropyl-8a-(2,5-difluorophenyl)-4,4a,5,6,8,8a-hexahydropyrano[3,4-d][1,3]thiazin-2-amine], the IC50 against BACE1 enzyme is 1420 nM; in test [1] (Homo sapiens), 85.1 nM.

As for `NC1=N[C@@]2(c3ccc(F)cc3F)CO[C@@H](C3CC3)C[C@H]2[C@@H](CF)S1` [Example 6, (4S,4aR,6R,8aS)-6-Cyclopropyl-8a-(2,4-difluorophenyl)-4-(fluoromethyl)-4,4a,5,6,8,8a-hexahydropyrano[3,4-d][1,3]thiazin-2-amine, hydrochloride salt], the IC50 at BACE1 enzyme was 346 nM; in test [1] (Homo sapiens), 39.1 nM.

Regarding `NC1=N[C@]2(c3ccc(F)cc3F)CO[C@H](C3CC3)C[C@@H]2CS1` [Example C23, (4aS,6S,8aR)-6-cyclopropyl-8a-(2,4-difluorophenyl)-4,4a,5,6,8,8a-hexahydropyrano[3,4-d][1,3]thiazin-2-amine], the “biological activity” value on BACE1 enzyme was “essentially inactive”. In test [1], the IC50 turned out to be 17300 nM.

`Cc1ccc([C@]23CO[C@@H](C4CC4)C[C@H]2CSC(N)=N3)cc1F` [Example 16, (4aR,6R,8aS)-6-Cyclopropyl-8a-(3-fluoro-4-methylphenyl)-4,4a,5,6,8,8a-hexahydropyrano[3,4-d][1,3]thiazin-2-amine]: the IC50 against BACE1 enzyme was found to be 897 nM; in test [1] (Homo sapiens) it was 92.3 nM.

As for `COC[C@H]1SC(N)=N[C@@]2(c3ccc(F)cc3F)CO[C@@H](C3CC3)C[C@@H]12` (racemic) [Example 5, rel-(4S,4aR,6R,8aS)-6-Cyclopropyl-8a-(2,4-difluorophenyl)-4-(methoxymethyl)-4,4a,5,6,8,8a-hexahydropyrano[3,4-d][1,3]thiazin-2-amine, hydrochloride salt], the 50% inhibitory concentration (IC50) at BACE1 enzyme turned out to be 1410 nM; in test [1] (Homo sapiens), 116 nM.

In the case of `NC1=N[C@@]2(c3ccc(F)cc3F)CO[C@@H](C3CC3)C[C@H]2CS1` [Example 2, (4aR,6R,8aS)-6-Cyclopropyl-8a-(2,4-difluorophenyl)-4,4a,5,6,8,8a-hexahydropyrano[3,4-d][1,3]thiazin-2-amine], the IC50 in test [1] (Homo sapiens) was 24.2 nM; against BACE2 enzyme, 2260 nM.

With `NC1=N[C@@]2(c3c(F)cc(F)cc3F)CO[C@@H](C3CC3)C[C@H]2CS1` [Example 9, (4aR,6R,8aS)-6-Cyclopropyl-8a-(2,4,6-trifluorophenyl)-4,4a,5,6,8,8a-hexahydropyrano[3,4-d][1,3]thiazin-2-amine], the half-maximal inhibitory concentration (IC50) worked out at 1050 nM on BACE1 enzyme and 57.2 nM in test [1] (Homo sapiens).

Take `NC1=N[C@@]2(c3ccccc3F)CO[C@@H](C3CC3)C[C@H]2CS1` [Example 13, (4aR,6R,8aS)-6-Cyclopropyl-8a-(2-fluorophenyl)-4,4a,5,6,8,8a-hexahydropyrano[3,4-d][1,3]thiazin-2-amine]: the figures for the IC50 (at BACE1 enzyme; in test [1] (Homo sapiens)) were 422 nM and 40 nM, respectively.

Take `NC1=N[C@@]2(c3ccc(F)cc3)CO[C@@H](C3CC3)C[C@H]2CS1` [Example 10, (4aR,6R,8aS)-6-Cyclopropyl-8a-(4-fluorophenyl)-4,4a,5,6,8,8a-hexahydropyrano[3,4-d][1,3]thiazin-2-amine]: the results for the IC50 (at BACE1 enzyme; in test [1] (Homo sapiens)) were 572 nM and 89.7 nM, respectively.

Take `CC1([C@H]2C[C@H]3CSC(N)=N[C@@]3(c3ccc(F)cc3F)CO2)CC1` [Example 7, (4aR,6R,8aS)-8a-(2,4-Difluorophenyl)-6-(1-methylcyclopropyl)-4,4a,5,6,8,8a-hexahydropyrano[3,4-d][1,3]thiazin-2-amine]: the values for the half-maximal inhibitory concentration (IC50) (against BACE1 enzyme; in test [1] (Homo sapiens)) were 484 nM and 142 nM, respectively.
